One test deals with K562. Put plainly: Cytotoxicity against Homo sapiens (human) K562 cells at 20 to 80 uM after 24 hr by MTT assay. The class given is functional, cell-based. For orientation: Tetrazolium assays rely on reduction of a dye to a coloured formazan, in cell work by metabolically active cells.
A further test has as its system Escherichia coli. Put plainly: Antimicrobial activity against Escherichia coli (DH5alpha) after 16 hr by spectrophotometry. The format is functional, organism-based. The conditions noted are these: DH5[alpha].

The source made the active and inactive calls. The calls are words filed in the database; no cut-off is given here.

For orientation: IC50 means the concentration at which inhibition is half-maximal. Read a high IC50 as a need for much substance.

`O=c1cnn(C/C(=N/Nc2ccccc2)c2ccccc2)c(=O)[nH]1`: the outcome in the test with K562 was Active. For the same molecule, half-maximal inhibition in the test with Escherichia coli (IC50) was put at 14.6 µM.
`c1ccc(N/N=C(/Cn2ccnc2)c2ccccc2)cc1` had an IC50 with Escherichia coli of 7.6 µM.
`COc1ccc(/C(Cn2ccc(=O)[nH]c2=O)=N\Nc2ccccc2)cc1`: in the test on Escherichia coli, the IC50 amounted to 6.2 µM.
For the molecule `O=c1[nH]c(=O)n(C/C(=N/Nc2ccccc2)c2ccccc2)cc1Cl`, the IC50 with Escherichia coli was 4.8 µM.
On to `c1ccc(N/N=C(/Cn2ccnc2-c2ccccc2)c2ccccc2)cc1`, for which the 50% inhibitory concentration (IC50) with Escherichia coli stood at 16.8 µM.
For `c1ccc(N/N=C(/Cn2nnc3ccccc32)c2ccccc2)cc1`, in the test with K562, the outcome was Active. Also, in the test on Escherichia coli, the IC50 was determined as 3.4 µM.
In the same order, the values of `O=C1CNC(=O)N1C/C(=N/Nc1ccccc1)c1ccccc1` are “Active” and 3.1 µM.
The molecule `c1ccc(N/N=C(/Cn2cnc3ccccc32)c2ccccc2)cc1` returned an IC50 in the test with Escherichia coli of 12.3 µM.
The same measure, in the same setting: under `O=c1ccn(C/C(=N/Nc2ccccc2)c2ccccc2)c(=O)[nH]1` stands 57.3 µM.
Still for that read-out and setting: under `Cc1cn(C/C(=N/Nc2ccccc2)c2ccccc2)c(=O)[nH]c1=O` stands 7.1 µM; under `COc1ccc(/C(Cn2cnc3ccccc32)=N\Nc2ccccc2)cc1`, 13.7 µM.

(Values after ChEMBL document CHEMBL3044989, “Structurecytotoxicity relationship of a novel series of miconazole-like compounds” (Med Chem Res, 2012).)
